{"source": "patent US20190298664A1", "about": "“METHOD AND KIT FOR MYOCARDIAL REPERFUSION, AND METHOD FOR ATTENUATING OR REDUCING MYOCARDIAL REPERFUSION INJURY” (Academia Sinica, priority 2018, published 2019)", "key": {"I/R mice [1]": {"tested_on": "I/R mice", "test": "Serum troponin I measurement in I/R mice", "assay_type": "in vivo, mouse", "details": "2 mg/kg IP", "protocol": "(§1) We anesthetized the mouse with 5% isoflurane mixed with room air until loss of sensation of pain and then maintained the mouse in anesthesia status with 2% isoflurane mixed with room air through the whole procedure. The mouse's body temperature was maintained at 37° C. by a heating pad. After the mouse was intubated, we provided artificial ventilation to the mouse with a small animal ventilator. Then the chest cavity was opened at the second intercostal space and homemade chest retractors were utilized to widen the incision. We pulled the pericardium apart carefully and exposed the left anterior descending artery (LAD). A 7-0 silk was put underneath the LAD at the position of the tip of the left auricle, a 6 mm length of PE-10 tube was put on the surface of the LAD, and then a double knot was made to occlude the blood flow of LAD. The success of ligation was confirmed by paling the anterior wall of the LV. For the reperfusion group, the LAD knot would be untied for the purpose of reperfusion after 1 hour of ischemia. For the sham operation group, all procedures were the same except for the knot that occluded the LAD flow. After the successful procedure, we left the silk in situ, closed the chest cavity and weaned the animal from the ventilator.\nBefore the mouse was sacrificed, blood was drawn from the facial vein. The blood was put in the room temperature for 30 minutes and then centrifuged at 4° C. for 15 minutes at 5000 rpm. After centrifuging, the serum is collected for troponin I measurement with troponin I ELISA kit (KT-469, Kamiya Biomedical Company) according to the manufacture's protocol."}, "I/R mice [2]": {"tested_on": "I/R mice", "test": "Echocardiography (ejection fraction) in I/R mice", "assay_type": "in vivo, mouse", "details": "2 mg/kg IP", "protocol": "as §1, with “confirmed by […] anterior wall” for “confirmed by paling the anterior wall”, “the ventilator. At 1 day and 1 week post the indicated I/R episode, the mice were received echocardiography for evaluating the cardiac function. […]” for “the ventilator.”"}, "[3]": {"target": "T1, PTP-PEST catalytic domain (Homo sapiens, UniProt Q05209)", "T1 construct": "PTP PEST Catalytic Domain construct (Amino Acid:1-300) with 6 His tag at N-terminal; 6 His (N, cleaved yes); made in house; host or cells: Sf9 insect cells (Sf9-VECL-01), Bac-to-Bac baculovirus system", "T1 sequence (Q05209 1-300)": "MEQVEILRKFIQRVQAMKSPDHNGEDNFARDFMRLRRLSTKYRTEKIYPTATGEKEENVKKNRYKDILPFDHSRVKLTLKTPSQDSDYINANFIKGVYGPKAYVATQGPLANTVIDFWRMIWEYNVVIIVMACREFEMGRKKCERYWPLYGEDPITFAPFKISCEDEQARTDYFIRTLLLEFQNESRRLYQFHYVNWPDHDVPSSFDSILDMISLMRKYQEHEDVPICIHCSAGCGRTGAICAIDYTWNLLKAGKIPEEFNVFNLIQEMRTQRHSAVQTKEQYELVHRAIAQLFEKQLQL", "test": "IC50 kinetic assay: phosphatase activity of purified PTP-PEST catalytic domain with phospho-Paxillin peptide substrate", "assay_type": "biochemical", "protocol": "PTP PEST Catalytic Domain construct (Amino Acid:1-300) with 6 His tag at N-terminal were expressed in insect cell Sf9-VECL-01 Cell line, using Bac-to-Bac Baculovirus expression system. Cells were infected with baculovirus at 27° C. and harvested after 65 hours of infection. Post harvesting cell suspension were centrifuged and pellet was stored at -80° C. To purify the protein, pellet was thawed and then dissolved in lysis buffer containing 50 mM Tris-HCl, 500 mM NaCl, 5% Glycerol, pH-7.5, and protease inhibitor cocktail tablet, EDTA free from Roche. Cell were lysed by TS-series cell disrupter (Constant System Ltd.) then lysate was centrifuged at 20000 RPM for 30 minutes at 4° C. using JA25.5 rotor in an Avanti J-26-XPI Centrifuge. […] After SEC purity of the protein was analyzed by SDS page and quantification was carried out by using NanoDrop Spectrophotometer. […] The absorbance of the reaction was measured at 650 nm by using Tecan Infinite […] instrument. The absorbance value was converted to amount of phosphate produced in reaction based on the standard curve generated from known phosphate concentration. Data generated in the reaction was fitted using nonlinear regression mode and IC50 value were calculated based on the equation function “Log(inhibitor) vs response-variable slope” from Graph Pad Prism 5.0."}, "PTP-PEST": {"target": "T2, PTP-PEST (Homo sapiens, UniProt Q05209)", "T2 construct": "PTP PEST Catalytic Domain construct (Amino Acid:1-300) with 6 His tag at N-terminal; 6 His (N, cleaved yes); made in house; host or cells: Sf9 insect cells (Sf9-VECL-01), Bac-to-Bac baculovirus system", "T2 sequence (Q05209 1-300)": "T1 sequence (Q05209 1-300)", "test": "Thermal stability of PTP-PEST by differential scanning fluorimetry and differential scanning calorimetry", "details": "in the presence of Auranofin; apo form shows a single unfolding event"}}, "note": "Read-outs that look alike come from different tables or passages of the source."}
{"smiles": "CC(=O)OC[C@H]1O[C@@H]([S-])[C@H](OC(C)=O)[C@@H](OC(C)=O)[C@@H]1OC(C)=O.CCP(CC)CC.[Au+]", "note": "[Auranofin, auranofin]", "values": [{"measurement": "Serum troponin I level", "setting": "I/R mice [1]; 4 hours post-I/R", "value": "reduced"}, {"measurement": "Serum troponin I level", "setting": "I/R mice [1]; one day after reperfusion", "value": "lower"}, {"measurement": "Cardiac ejection fraction", "setting": "I/R mice [2]; one day post-MI", "value": "significant improvement"}, {"measurement": "Restoration of cardiac performance judged by echocardiography", "setting": "I/R mice [2]; one week post-MI", "value": "sustained up to one week"}, {"measurement": "IC50", "setting": "[3]; read-out: IC50 of the auranofin to the PTP-PEST, as restated in the summary", "value": 38.7, "unit": "µM"}, {"measurement": "IC50", "setting": "[3]; synthetic phospho-Paxillin peptide as substrate, 25 nM protein, 50 μM peptide, 30° C., 30 min, read-out: IC50 on enzymatic activity of purified PTP-PEST", "value": 38.7, "unit": "µM"}, {"measurement": "Unfolding events of PTP-PEST (DSF and DSC)", "setting": "PTP-PEST", "value": "two unfolding events"}]}
